The text below walks through data of patent US20260240846A1, “ZAK ALPHA KINASE (MAP3K20) INHIBITORS FOR USE IN THE TREATMENT OF ANEMIA” (UNIVERSIDAD DE MURCIA, priority 2023, published 2026).

In the assay the test system is primary CD34+/CD133+ HSPCs from healthy donors. Briefly: Erythroid differentiation of primary CD34+/CD133+ HSPCs with EPO (flow cytometry CD235a/CD71). Type of assay: cell-based, human. The following applies: 0.1 μM nilotinib from 3 to 7 d or 7 to 10 d of culture. On the procedure:
(§1) FIG. 8. Nilotinib promotes erythropoiesis of primary CD34^+/CD133^+ HSPCs from healthy donors. (A) Primary human CD34^+/CD133^+ cells were differentiated with erythropoietin (EPO) and 0.1 μM nilotinib was added from 3 to 7 d of culture and the number of life cells calculated by the trypan blue exclusion assay. (B, C) Cells were stained with anti-CD235a-APC and anti-CD71-FITC, and erythroid differentiation was then analyzed by flow cytometry. Representative dot plots at different differentiation times (B) and overlapped histogram of CD235a at 7 d and the mean fluorescence intensity (MFI) at different differentiation times (C) are shown.
as §1, with “FIG. 9.” for “FIG. 8.”, “with EPO” for “with erythropoietin (EPO)”, “from 7” for “from 3”, “to 10” for “to 7”, “at 10” for “at 7”, “shown. […]” for “shown.”
In general terms: In flow cytometry, cells or beads pass a laser one at a time.

Consider `Cc1cn(-c2cc(NC(=O)c3ccc(C)c(Nc4nccc(-c5cccnc5)n4)c3)cc(C(F)(F)F)c2)cn1` [nilotinib], for which the “erythropoiesis of primary CD34+/CD133+ HSPCs” value was “accelerated erythropoiesis”.
